The subject of one test is HCT116. Kind of test: HCT116 IC50 (Table 2, no method described). It counts as cell-based. To be noted: Homo sapiens, HCT-116.
The target in the next test is T1, HDAC-1 (Homo sapiens, UniProt Q13547).
T1 construct: made in house; host or cells: Sf9 or Sf21 insect cells (baculovirus, donor vector pFB-GSTX3)
The test can be described thus: HDAC Inhibition Assay (purified GST-HDAC protein). It counts as biochemical. An excerpt: The baculovirus donor vector pFB-GSTX3 is used to generate a recombinant baculovirus that expresses the HDAC polypeptide. Transfer vectors containing the HDAC coding region are transfected into the DH10Bac cell line (GIBCO) and plated on selective agar plates. Colonies without insertion of the fusion sequence into the viral genome (carried by the bacteria) are blue. Single, white colonies are picked and viral DNAs (bacmid) are isolated from the bacteria by standard plasmid purification procedures. Sf9 cells or Sf21 (American Type Culture Collection) cells are then transfected in […] flasks with the viral DNA using Cellfectin reagent.
Virus-containing media is collected from the transfected cell culture and used for infection to increase its titer. Virus-containing media obtained after two rounds of infection is used for large-scale protein expression. For large-scale protein expression 100 cm^2 round tissue culture plates are seeded with 5×10^7 cells/plate and infected with 1 mL of virus-containing media (at an approximately MOI of 5). After 3 days, the cells are scraped off the plate and centrifuged at 500 rpm for 5 minutes. Cell pellets from 10-20, 100 cm^2 plates, are re-suspended in 50 mL of ice-cold lysis buffer (25 mM tris-HCl, pH 7.5, 2 mM EDTA, 1% NP-40, 1 mM DTT, 1 mM P MSF). The cells are stirred on ice for 15 minutes and then centrifuged at 5,000 rpms for 20 minutes.
The centrifuged cell lysate is loaded onto a 2 mL glutathione-sepharose column (Pharmacia) and is washed thrice with 10 mL of 25 mM tris-HCl, pH 7.5, 2 mM EDTA, 1 mM DTT, 200 mM NaCl. The GST-tagged proteins are then eluted by 10 applications (1 mL each) of 25 mM tris-HCl, pH 7.5, 10 mM reduced-glutathione, 100 mM NaCl, 1 mM DTT, 10% glycerol and stored at −70° C.
HDAC assays with purified GST-HDAC protein are carried out in a final volume of 30 μL containing 15 ng of GST-HDAC protein, 20 mM tris-HCl, pH 7.5, 1 mM MnCl2, 10 mM MgCl2, 1 mM DTT, 3 μg/mL poly(Glu,Tyr) 4:1, 1% DMSO, 2.0 μM ATP (γ-[^33P]-ATP 0.1 μCi). The activity is assayed in the presence or absence of inhibitors. The assay is carried out in 96-well plates at ambient temperature for 15 minutes under conditions described below and terminated by the addition of 20 μL of 125 mM EDTA. Subsequently, 40 μL of the reaction mixture are transferred onto EMMOBILON-PVDF membrane (Millipore) previously soaked for 5 minutes with methanol, rinsed with water, then soaked for 5 minutes with 0.5% H3PO4 and mounted on vacuum manifold with disconnected vacuum source. After spotting all samples, a vacuum is connected and each well-rinsed with 200 μL 0.5% H3PO4. Membranes are removed and washed four times on a shaker with 1.0% H3PO4, once with ethanol. Membranes are counted after drying at ambient temperature, mounting in Packard TopCount 96-well frame, and addition of 10 μL/well of MICROSCINT™ (Packard). IC50 values are calculated by linear regression analysis of the percentage inhibition of each compound in duplicate, at 4 concentrations (usually 0.01, 0.1, 1 and 10 μM).
• Input: 3×4 μL stopped assay on IMMOBILON membrane, not washed • Background (3 wells): assay with H2O instead of enzyme • Positive control (4 wells): 3% DMSO instead of compound • Bath control (1 well): no reaction mix
IC50 values are calculated by logarithmic regression analysis of the percentage inhibition of each compound at 4 concentrations (usually 3- or 10-fold dilution series starting at 10 μM). In each experiment, the actual inhibition by reference compound is used for normalization of IC50 values to the basis of an average value of the reference inhibitor:
Normalized IC50=measured IC50 average ref. IC50/measured ref. IC50

T1 sequence (Q13547 whole entry, species assumed): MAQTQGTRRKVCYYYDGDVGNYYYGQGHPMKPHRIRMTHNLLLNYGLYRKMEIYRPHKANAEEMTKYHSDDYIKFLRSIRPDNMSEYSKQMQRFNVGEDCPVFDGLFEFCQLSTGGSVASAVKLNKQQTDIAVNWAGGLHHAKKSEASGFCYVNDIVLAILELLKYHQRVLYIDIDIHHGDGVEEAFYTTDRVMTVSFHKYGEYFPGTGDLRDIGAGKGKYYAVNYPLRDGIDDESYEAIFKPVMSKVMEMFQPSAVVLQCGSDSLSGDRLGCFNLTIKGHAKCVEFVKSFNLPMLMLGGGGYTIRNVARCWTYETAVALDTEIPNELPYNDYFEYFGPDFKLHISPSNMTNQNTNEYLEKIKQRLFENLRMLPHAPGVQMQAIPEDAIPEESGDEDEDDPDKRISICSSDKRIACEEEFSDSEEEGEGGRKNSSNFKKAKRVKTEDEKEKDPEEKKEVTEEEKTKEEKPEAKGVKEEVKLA

The term IC50 denotes the concentration needed to halve the response being measured. Take `O=C(/C=C/c1ccc(CN2CCC[C@H]2Cc2c[nH]c3ccccc23)cc1)NO` [Cpd 1, (E)-N-Hydroxy-3-{4-[(S)-2-(1H-indol-3-ylmethyl)-pyrrolidin-1-ylmethyl]-phenyl}-acrylamide]: the values for the IC50 in the test with HCT116 and on HDAC-1 were 100 nM and 10 nM, respectively.
Take `O=C(/C=C/c1ccc(CN2CCC[C@@H]2Cc2c[nH]c3ccccc23)cc1)NO` [Cpd 2, (E)-N-Hydroxy-3-{4-[(R)-2-(1H-indol-3-ylmethyl)-pyrrolidin-1-ylmethyl]-phenyl}-acrylamide]: the values for the IC50 in the test with HCT116 and against HDAC-1 were 3 nM and 0.65 nM, respectively.
In the case of `Cc1[nH]c2ccccc2c1C[C@H]1CCCN1Cc1ccc(/C=C/C(=O)NO)cc1` [Cpd 4, (E)-N-Hydroxy-3-{4-[(R)-2-(2-methyl-1H-indol-3-ylmethyl)-pyrrolidin-1-ylmethyl]-phenyl}-acrylamide], the half-maximal inhibitory concentration (IC50) in the test on HCT116 was found to be 0.4 nM; against HDAC-1, 0.65 nM.
With `CC(C)CC1CCCN1Cc1ccc(/C=C/C(=O)NO)cc1` (stereo not drawn) [Cpd 5, (E)-N-Hydroxy-3-[4-(2-isobutyl-pyrrolidin-1-ylmethyl)-phenyl]-acrylamide], on HDAC-1, the IC50 is 8 nM.
The compound `O=C(/C=C/c1ccc(CN2CCCC2Cc2cccnc2)cc1)NO` (stereo not drawn) [Cpd 6, (E)-N-Hydroxy-3-[4-(2-pyridin-3-ylmethyl-pyrrolidin-1-ylmethyl)-phenyl]-acrylamide] registered an IC50 on HDAC-1 of 5 nM.
As to `O=C(/C=C/c1ccc(CN2CCC[C@H]2Cc2c[nH]c3ccccc23)c(F)c1)NO` [Cpd 8, (E)-3-{3-Fluoro-4-[(S)-2-(1H-indol-3-ylmethyl)-pyrrolidin-1-ylmethyl]-phenyl}-N-hydroxy-acrylamide], the IC50 in the test on HCT116 was 83 nM; at HDAC-1, 10 nM.
As to `O=C(/C=C/c1ccc(CN2CCC[C@@H]2Cc2c[nH]c3ccccc23)c(F)c1)NO` [Cpd 9, (E)-3-{3-Fluoro-4-[(R)-2-(1H-indol-3-ylmethyl)-pyrrolidin-1-ylmethyl]-phenyl}-N-hydroxy-acrylamide], the figures for the IC50 in the test with HCT116 and at HDAC-1 were 3 nM and 1.3 nM, respectively.
`Cc1[nH]c2ccccc2c1C[C@H]1CCCN1Cc1ccc(/C=C/C(=O)NO)cc1F` [Cpd 10, (E)-3-{3-Fluoro-4-[(R)-2-(2-methyl-1H-indol-3-ylmethyl)-pyrrolidin-1-ylmethyl]-phenyl}-N-hydroxy-acrylamide]: the IC50 in the test with HCT116 amounted to 0.6 nM; on HDAC-1, 0.7 nM.
Regarding `O=C(/C=C/c1ccc(CN2CCC[C@H]2C(=O)c2c[nH]c3ccccc23)cc1)NO` [Cpd 11, (E)-N-Hydroxy-3-{4-[(S)-2-(1H-indole-3-carbonyl)-pyrrolidin-1-ylmethyl]-phenyl}-acrylamide], the results for the IC50 in the test on HCT116 and against HDAC-1 were 560 nM and 56 nM, respectively.
`O=C(/C=C/c1ccc(CN2CCC[C@@H]2C(=O)c2c[nH]c3ccccc23)cc1)NO` [Cpd 12, (E)-N-Hydroxy-3-{4-[(R)-2-(1H-indole-3-carbonyl)-pyrrolidin-1-ylmethyl]-phenyl}-acrylamide]: the IC50 was found to be 520 nM in the test on HCT116 and 38 nM against HDAC-1.
Turning to `Cc1[nH]c2ccccc2c1C[C@H]1CCCN1[C@@H](C)c1ccc(/C=C/C(=O)NO)cc1` [Cpd 14, (E)-N-Hydroxy-3-(4-{(S)-1-[(R)-2-(2-methyl-1H-indol-3-ylmethyl)-pyrrolidin-1-yl]-ethyl}-phenyl)-acrylamide], the IC50 in the test on HCT116 is 2.4 nM; against HDAC-1, 1.3 nM.
For `Cc1[nH]c2ccccc2c1C[C@H]1CCCN1[C@H](C)c1ccc(/C=C/C(=O)NO)cc1` [Cpd 15, (E)-N-Hydroxy-3-(4-{(R)-1-[(R)-2-(2-methyl-1H-indol-3-ylmethyl)-pyrrolidin-1-yl]-ethyl}-phenyl)-acrylamide], the IC50 with HCT116 stood at 3 nM; on HDAC-1, 1 nM.
With `CC(c1ccc(/C=C/C(=O)NO)cc1)N1CCC[C@H]1CN1CCCC1` (stereo partly drawn) [Cpd 16, (E)-N-Hydroxy-3-{4-[1-((S)-2-pyrrolidin-1-ylmethyl-pyrrolidin-1-yl)-ethyl]-phenyl}-acrylamide], the IC50 against HDAC-1 turned out to be 380 nM.
For the compound `O=C(/C=C/c1ccc(CN2CCC[C@@H]2C(=O)N2CCc3ccccc32)cc1)NO` [Cpd 17, (E)-3-{4-[(R)-2-(2,3-Dihydro-indole-1-carbonyl)-pyrrolidin-1-ylmethyl]-phenyl}-N-hydroxy-acrylamide], the IC50 came out at 950 nM in the test on HCT116 and 210 nM on HDAC-1.
Turning to `O=C(/C=C/c1ccc(CN2CCC[C@H]2C(=O)N2CCc3ccccc32)cc1)NO` [Cpd 18, (E)-3-{4-[(S)-2-(2,3-Dihydro-indole-1-carbonyl)-pyrrolidin-1-ylmethyl]-phenyl}-N-hydroxy-acrylamide], the figures for the IC50 in the test on HCT116 and against HDAC-1 were 7000 nM and 350 nM, respectively.
Regarding `O=C(/C=C/c1ccc(CN2CCC[C@H]2CN2CCc3ccccc32)cc1)NO` [Cpd 19, (E)-3-{4-[(S)-2-(2,3-Dihydro-indol-1-ylmethyl)-pyrrolidin-1-ylmethyl]-phenyl}-N-hydroxy-acrylamide], the 50% inhibitory concentration (IC50) in the test on HCT116 turned out to be 100 nM; at HDAC-1, 36 nM.
Take `Cc1[nH]c2ccccc2c1C[C@H]1C[C@@H](O)CN1Cc1ccc(/C=C/C(=O)NO)cc1` [Cpd 20, (E)-N-Hydroxy-3-{4-[(2S,4R)-4-hydroxy-2-(2-methyl-1H-indol-3-ylmethyl)-pyrrolidin-1-ylmethyl]-phenyl}-acrylamide]: the concentration for half-maximal inhibition (IC50) with HCT116 was 1 nM; at HDAC-1, 0.6 nM.
Consider `Cc1[nH]c2ccccc2c1C[C@H]1C[C@H](O)CN1Cc1ccc(/C=C/C(=O)NO)cc1` [Cpd 21, (E)-N-Hydroxy-3-{4-[(2S,4S)-4-hydroxy-2-(2-methyl-1H-indol-3-ylmethyl)-pyrrolidin-l-ylmethyl]-phenyl}-acrylamide], for which the figures for the IC50 with HCT116 and on HDAC-1 were 1 nM and 0.7 nM, respectively.
Compound `Cc1[nH]c2ccccc2c1C[C@H]1CCCN1Cc1ccc(/C=C/C(=O)NO)cn1` [Cpd 26, (E)-N-Hydroxy-3-{6-[(R)-2-(2-methyl-1H-indol-3-ylmethyl)-pyrrolidin-1-ylmethyl]-pyridin-3-yl}-acrylamide] showed an IC50 against HDAC-1 of 1.7 nM.
`Cc1[nH]c2ccccc2c1C[C@H]1C[C@H](O)CN1Cc1ccc(/C=C/C(=O)NO)cn1` [Cpd 28, (E)-N-Hydroxy-3-{6-[(2S,4S)-4-hydroxy-2-(2-methyl-1H-indol-3-ylmethyl)-pyrrolidin-1-ylmethyl]-pyridin-3-yl}-acrylamide] registered an IC50 on HDAC-1 of 1.7 nM.
Consider `Cc1nn(-c2ccccc2)c(C)c1C[C@H]1C[C@H](O)CN1Cc1ccc(/C=C/C(=O)NO)cc1` [Cpd 33, (E)-3-{4-[(2S,4S)-2-(3,5-Dimethyl-1-phenyl-1H-pyrazol-4-ylmethyl)-4-hydroxy-pyrrolidin-1-ylmethyl]-phenyl}-N-hydroxy-acrylamide], for which 0.7 nM corresponded to half-maximal inhibition on HDAC-1 (IC50).
Turning to `Cc1nn(-c2ccccc2)c(C)c1C(O)[C@H]1C[C@H](O)CN1Cc1ccc(/C=C/C(=O)NO)cc1` (stereo partly drawn) [Cpd 34, (E)-3-(4-{(2R,4S)-2-[(3,5-Dimethyl-1-phenyl-1H-pyrazol-4-yl)-hydroxy-methyl]-4-hydroxy-pyrrolidin-1-ylmethyl}-phenyl)-N-hydroxy-acrylamide], on HDAC-1, the IC50 worked out at 27 nM.
On HDAC-1, `O=C(/C=C/c1ccc(CN2CCC[C@@H]2Cc2nc(-c3ccccc3)no2)cc1)NO` [Cpd 39, (E)-N-Hydroxy-3-{4-[(R)-2-(3-phenyl-[1,2,4]oxadiazol-5-ylmethyl)-pyrrolidin-1-ylmethyl]-phenyl}-acrylamide] yielded an IC50 of 20 nM.
Consider `O=C(/C=C/c1ccc(CN2C[C@H](O)C[C@@H]2Cn2cc(-c3cccnc3)nn2)cc1)NO` [Cpd 41, (E)-N-Hydroxy-3-{4-[(2R,4R)-4-hydroxy-2-(4-pyridin-3-yl-[1,2,3]triazol-1-ylmethyl)-pyrrolidin-1-ylmethyl]-phenyl}-acrylamide], for which, on HDAC-1, the midpoint of inhibition, the IC50, lay at 170 nM.

These data come from US20110060009A1, “Hydroxamate-Based Inhibitors of Deacetylases” (NOVARTIS AG, priority 2009, published 2011).
